Measurements as given in patent US6440996B1, “Monomeric and dimeric heterocycles, and therapeutic uses thereof” (priority 1998, dated 2002).
Like-named read-outs stand apart in the source and are kept apart here.

How the values were obtained:
dopamine transporter [1] = target: T1, dopamine transporter (Rattus norvegicus, UniProt P23977); assay: [3H]WIN 35,428 binding to rat striatal membranes / dopamine transporter binding (DAT)
T1 construct: from tissue; P2 synaptosomes for uptake
Method: (§1) Determination of inhibitory binding potencies of analogues at dopamine, serotonin, and norepinephrine transporters are carried out using standard receptor binding assays which are known in the art.
A. Dopamine Transporter Binding (DAT)

dopamine transporter [2] = target: T1, dopamine transporter; assay: Inhibition of high-affinity [3H]dopamine uptake into rat striatal nerve endings (synaptosomes); assay type: biochemical
Method: A. [^3H]Dopamine Uptake Studies
The effect of candidate compounds in antagonizing dopamine high-affinity uptake was determined using a method previously employed. For [^3H]DA uptake, dissected rat striata were homogenized with a Teflon-glass pestle in ice-cold 0.32 M sucrose and centrifuged for 10 min at 1000×g. The supernatant was centrifuged at 17,500×g for 20 min. This P2 synaptosomal pellet was resuspended in 30 volumes of ice-cold modified KRH buffer. An aliquot of the synaptosomal suspension was preincubated with the buffer and drug for 30 min at 37° C., and uptake initiated by the addition of [^3H]dopamine (5 nM, final concentration). After 5 min, uptake was terminated by adding 5 mL of cold buffer containing glucosamine as a substitute for NaCl and then finally by rapid vacuum filtration over GF-C glass fiber filters, followed by washing with two 5 mL volumes of ice-cold, sodium-free buffer. Radioactivity retained on the filters was determined by liquid scintillation spectrometry. […] It is identical to that calculated by subtracting the mean of identical tubes incubated at 0° C.

[3] = target: norepinephrine transporter (Rattus norvegicus, UniProt Q9WTR4); assay: Norepinephrine transporter binding (NET)
Method: as §1
C. Norepinephrine Transporter Binding (NET)
J. Med Chem., 36, 2886-2890.

serotonin transporter = serotonin transporter (Rattus norvegicus, UniProt P31652); assay: Serotonin transporter binding (5-HTT)
Method: as §1
B. Serotonin Transporter Binding (5-HTT)
Mol. Pharmacol., 39, 339.

[4] = IC50 (nM) [3H]WIN 35,428 binding, rat striatal membranes, Table 1
[5] = Table 2, unit inferred, read-out: Dopamine Uptake
[6] = rat striatal synaptosomes, Table 1, read-out: IC50 (nM) [3H]dopamine uptake
[7] = Table 2, read-out: DAT IC50 (nm)
[8] = rat striatal membranes, Table 1, read-out: IC50 (nM) [3H]WIN 35,428 binding

serotonin transporter, sequence (P31652 whole entry): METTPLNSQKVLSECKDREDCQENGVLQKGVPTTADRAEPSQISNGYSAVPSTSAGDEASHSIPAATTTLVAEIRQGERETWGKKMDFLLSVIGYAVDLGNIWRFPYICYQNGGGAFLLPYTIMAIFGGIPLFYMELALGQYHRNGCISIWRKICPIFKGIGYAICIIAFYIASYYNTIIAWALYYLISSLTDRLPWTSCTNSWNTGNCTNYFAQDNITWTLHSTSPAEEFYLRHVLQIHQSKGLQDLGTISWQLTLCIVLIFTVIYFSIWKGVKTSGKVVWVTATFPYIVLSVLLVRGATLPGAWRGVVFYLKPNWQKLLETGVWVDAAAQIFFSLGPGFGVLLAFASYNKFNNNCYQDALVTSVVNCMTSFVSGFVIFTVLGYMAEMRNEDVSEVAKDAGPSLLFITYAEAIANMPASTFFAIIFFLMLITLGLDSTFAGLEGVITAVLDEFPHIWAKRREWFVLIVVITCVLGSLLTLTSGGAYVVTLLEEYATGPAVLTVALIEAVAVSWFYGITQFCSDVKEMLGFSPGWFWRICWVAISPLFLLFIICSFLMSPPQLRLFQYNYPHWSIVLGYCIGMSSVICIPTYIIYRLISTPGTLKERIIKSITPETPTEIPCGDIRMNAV
norepinephrine transporter, sequence (Q9WTR4 1-597): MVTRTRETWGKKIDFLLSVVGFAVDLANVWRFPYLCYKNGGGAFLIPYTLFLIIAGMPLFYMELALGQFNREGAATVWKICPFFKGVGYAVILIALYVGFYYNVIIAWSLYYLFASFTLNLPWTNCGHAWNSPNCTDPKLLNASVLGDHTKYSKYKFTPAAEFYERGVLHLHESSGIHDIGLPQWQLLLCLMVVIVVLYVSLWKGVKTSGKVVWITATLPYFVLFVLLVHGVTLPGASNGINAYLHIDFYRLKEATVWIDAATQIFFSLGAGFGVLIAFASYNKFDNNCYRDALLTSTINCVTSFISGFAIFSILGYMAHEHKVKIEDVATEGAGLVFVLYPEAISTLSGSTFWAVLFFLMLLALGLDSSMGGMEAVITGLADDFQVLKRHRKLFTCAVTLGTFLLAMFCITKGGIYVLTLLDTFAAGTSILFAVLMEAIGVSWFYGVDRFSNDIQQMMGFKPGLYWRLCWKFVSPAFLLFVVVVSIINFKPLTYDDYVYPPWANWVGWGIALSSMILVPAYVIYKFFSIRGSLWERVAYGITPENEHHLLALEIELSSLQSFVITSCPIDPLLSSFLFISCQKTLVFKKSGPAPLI
T1 sequence (P23977 whole entry): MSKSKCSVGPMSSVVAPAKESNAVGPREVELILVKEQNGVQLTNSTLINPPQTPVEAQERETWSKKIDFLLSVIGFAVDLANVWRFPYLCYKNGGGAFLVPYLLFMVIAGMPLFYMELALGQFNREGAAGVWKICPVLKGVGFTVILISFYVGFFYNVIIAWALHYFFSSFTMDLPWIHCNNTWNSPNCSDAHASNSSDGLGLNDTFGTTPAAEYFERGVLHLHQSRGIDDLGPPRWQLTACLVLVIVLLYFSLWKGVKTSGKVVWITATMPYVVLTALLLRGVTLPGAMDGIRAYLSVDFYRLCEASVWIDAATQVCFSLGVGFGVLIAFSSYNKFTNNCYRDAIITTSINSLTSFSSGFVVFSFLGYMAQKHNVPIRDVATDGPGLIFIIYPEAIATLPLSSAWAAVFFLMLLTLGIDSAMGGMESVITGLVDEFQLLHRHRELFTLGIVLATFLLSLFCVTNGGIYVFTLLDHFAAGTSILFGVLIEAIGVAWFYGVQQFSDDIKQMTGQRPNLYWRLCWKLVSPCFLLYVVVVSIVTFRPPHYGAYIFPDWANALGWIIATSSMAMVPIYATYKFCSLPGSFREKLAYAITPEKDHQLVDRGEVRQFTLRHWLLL

**Q.** Which IC50 (dopamine transporter [1]; DAT IC50 (nm), Table 2) does the source give for `CCc1ccc(C2CCN(C)CC2C(=O)OC)cc1I` (single isomer, unassigned; (+)) [Compound 68, (+)-Methyl 4β-(4-Ethyl-3-iodophenyl)-1-methylpiperidine-3α-carboxylate] here?
**A.** Its IC50 is 1420 nM.

**Q.** For `COC(=O)C1CN(C)CCC1c1ccc(Cl)cc1` (single isomer, unassigned; (-)) [Compound 12, (−)-Methyl 4β-(4-Chlorophenyl)-1-methylpiperidine-3α-carboxylate], which IC50 (dopamine transporter [1]; DAT IC50 (nm), Table 2) is on record?
**A.** Its IC50 is 653 nM.

**Q.** What about the IC50 (dopamine transporter [1]; [4]) of the same molecule?
**A.** Its IC50 is 653 ± 38 nM.

**Q.** What about the IC50 (dopamine transporter [2]; [5]) of the same molecule?
**A.** The IC50 was 195 nM.

**Q.** And the IC50 (dopamine transporter [2]; [6])?
**A.** The IC50 was 195 ± 8 nM.

**Q.** With `COC(=O)C1CN(S(=O)(=O)c2ccccc2)CCC1c1ccc(Cl)cc1` (single isomer, unassigned; (-)) [Compound 46, (−)-Methyl 4β-(4-Chlorophenyl)-1-phenylsulfonyl-piperidine-3β-carboxylate] as the molecule, how does the IC50 (dopamine transporter [1]; DAT IC50 (nm), Table 2) read?
**A.** Its IC50 is 26100 nM.

**Q.** What about the IC50 [3] of the same molecule?
**A.** The IC50 was over 10000 nM.

**Q.** What about the melting point of the same molecule?
**A.** Its melting point is 76 to 78 °C.

**Q.** With `COC(=O)C1CN(Cc2ccccc2)CCC1c1ccc(Cl)cc1` (single isomer, unassigned; (-)) [Compound 47, (−)-Methyl 4β-(4-Chlorophenyl)-1-benzylpiperidine-3β-carboxylate] as the molecule, how does the IC50 (dopamine transporter [1]; DAT IC50 (nm), Table 2) read?
**A.** The IC50 was 917 nM.

**Q.** And the melting point?
**A.** Its melting point is 119 to 121 °C.

**Q.** With `COC(=O)C1(C)CN(C)CCC1c1ccc(Cl)cc1` (single isomer, unassigned; (-)) [Compound 49, (−)-Methyl 4β-(4-Chlorophenyl)-3β-methyl-1-methylpiperidine-3b-carboxylate] as the molecule, how does the IC50 (dopamine transporter [1]; DAT IC50 (nm), Table 2) read?
**A.** Its IC50 is 1970 nM.

**Q.** Which IC50 (dopamine transporter [1]; DAT IC50 (nm), Table 2) does the source give for `CN1CCC(c2ccc(Cl)cc2)C(C(=O)Oc2ccccc2)C1` (single isomer, unassigned; (-)) [Compound 60, (−)-Phenyl 4β-(4-Chlorophenyl)-1-methylpiperidine-3b-carboxylate] here?
**A.** Its IC50 is 39 nM.

**Q.** With `COC(=O)C1CN(C)CCC1c1ccc(Br)cc1` (single isomer, unassigned; (-)) [Compound 63, (−)-Methyl 4β-(4-Bromophenyl)-1-methylpiperidine-3β-carboxylate] as the molecule, how does the IC50 (dopamine transporter [1]; DAT IC50 (nm), Table 2) read?
**A.** The IC50 was 3 nM.

**Q.** And the IC50 (serotonin transporter; 5-HTT IC50 (nm), Table 2)?
**A.** The IC50 was 1100 nM.

**Q.** What about the melting point of the same molecule?
**A.** The melting point was 121 to 122 °C.

**Q.** With `C=Cc1ccc(C2CCN(C)CC2C(=O)OC)cc1` (single isomer, unassigned; (-)) [Compound 64, (−)-Methyl 4β-(4-Vinylphenyl)-1-methylpiperidine-3β-carboxylate] as the molecule, how does the IC50 [3] read?
**A.** The IC50 was 65800 nM.

**Q.** What about the IC50 (serotonin transporter; 5-HTT IC50 (nm), Table 2) of the same molecule?
**A.** The IC50 was 13200 nM.

**Q.** What about the melting point of the same molecule?
**A.** The melting point was 68 to 69 °C.

**Q.** For `CCc1ccc(C2CCN(C)CC2C(=O)OC)cc1I` (single isomer, unassigned; (-)) [Compound 66, (−)-Methyl 4β-(4-Ethyl-3-iodophenyl)-1-methylpiperidine-3β-carboxylate], which IC50 (dopamine transporter [1]; DAT IC50 (nm), Table 2) is on record?
**A.** Its IC50 is 4410 nM.

**Q.** With `CCc1ccc(C2CCN(C)CC2C(=O)OC)cc1` (single isomer, unassigned; (-)) [Compound 81, (−)-Methyl 4β-(4-Ethylphenyl)-1-methylpiperidine-3β-carboxylate] as the molecule, how does the IC50 (dopamine transporter [1]; [7]) read?
**A.** Its IC50 is 1690 nM.

**Q.** And the IC50 ([3]; Table 2, read-out: NET IC50 (nm))?
**A.** Its IC50 is over 10000 nM.

**Q.** What about the IC50 (serotonin transporter; 5-HTT IC50 (nm), Table 2) of the same molecule?
**A.** The IC50 was 15700 nM.

**Q.** Which results are given for `CN1CC[C@H](c2ccc(Cl)cc2)[C@H](CO)C1` [Compound 5, (−)-4β-(4-Chlorophenyl)-3β-(hydroxymethyl)-1-methylpiperidine]?
**A.** IC50 (dopamine transporter [1]; DAT IC50 (nm), Table 2): 75 nM; IC50 (dopamine transporter [1]; [4]): 75.3 ± 6.2 nM; IC50 (dopamine transporter [2]; [5]): 49 nM; IC50 (dopamine transporter [2]; [6]): 49 ± 3 nM

**Q.** With `CC(=O)OC[C@@H]1CN(C)CC[C@@H]1c1ccc(Cl)cc1` [Compound 7, (−)-3β-(Acetoxymethyl)-4β-(4-chlorophenyl)-1-methylpiperidine] as the molecule, how does the IC50 (dopamine transporter [1]; DAT IC50 (nm), Table 2) read?
**A.** Its IC50 is 10 nM.

**Q.** And the IC50 (dopamine transporter [1]; [8])?
**A.** The IC50 was 44.7 ± 10.5 nM.

**Q.** What about the IC50 (dopamine transporter [2]; [5]) of the same molecule?
**A.** Its IC50 is 63 nM.

**Q.** And the IC50 (dopamine transporter [2]; [6])?
**A.** Its IC50 is 62.9 ± 2.7 nM.

**Q.** And the IC50 [3]?
**A.** The IC50 was 233 nM.

**Q.** What about the melting point of the same molecule?
**A.** Its melting point is 76 °C.

**Q.** Which results are given for `CCC[C@@H]1CN(C)CC[C@@H]1c1ccc(Cl)cc1` [Compound 9, (−) 4β-(4-Chlorophenyl)-1-methyl-3β-n-propylpiperidine]?
**A.** IC50 (dopamine transporter [1]; [7]): 3 nM; IC50 (dopamine transporter [1]; [8]): 3 ± 0.5 nM; IC50 (dopamine transporter [1]; read-out: binding affinity): 3 nM; fold more potent than cocaine in binding affinity (dopamine transporter [1]; relative to cocaine): 33 fold; IC50 (dopamine transporter [2]; [5]): 8 nM; IC50 (dopamine transporter [2]; [6]): 8.3 ± 0.6 nM; fold more potent than cocaine in inhibition of dopamine uptake (dopamine transporter [2]; relative to cocaine): 29 fold

**Q.** Which IC50 (dopamine transporter [1]; DAT IC50 (nm), Table 2) does the source give for `COC(=O)[C@@H]1CN(C)CC[C@@H]1c1ccccc1` [Compound 10, (−)-Methyl 1-Methyl-4β-phenylpiperidine-3β-carboxylate] here?
**A.** Its IC50 is 797 nM.

**Q.** And the IC50 (dopamine transporter [1]; [4])?
**A.** Its IC50 is 769 ± 19 nM.

**Q.** With `COC(=O)[C@H]1CN(C)CC[C@@H]1c1ccc(Cl)cc1` [Compound 11, (+)-Methyl 4β-(4-Chlorophenyl)-1-methylpiperidine-3α-carboxylate] as the molecule, how does the IC50 (dopamine transporter [1]; [7]) read?
**A.** Its IC50 is 57 nM.

**Q.** And the IC50 (dopamine transporter [1]; [8])?
**A.** Its IC50 is 57.3 ± 8.1 nM.

**Q.** What about the IC50 (dopamine transporter [2]; [5]) of the same molecule?
**A.** The IC50 was 34 nM.

**Q.** And the IC50 (dopamine transporter [2]; [6])?
**A.** The IC50 was 34.6 ± 3.2 nM.

**Q.** What about the IC50 [3] of the same molecule?
**A.** The IC50 was 4200 nM.

**Q.** What about the IC50 (serotonin transporter; 5-HTT IC50 (nm), Table 2) of the same molecule?
**A.** Its IC50 is 1620 nM.

**Q.** With `CN1CC[C@H](c2ccc(Cl)cc2)[C@@H](CCCO)C1` [Compound 54] as the molecule, how does the IC50 (dopamine transporter [1]; DAT IC50 (nm), Table 2) read?
**A.** The IC50 was 15 nM.

**Q.** What about the IC50 [3] of the same molecule?
**A.** Its IC50 is 563 nM.

**Q.** And the IC50 (serotonin transporter)?
**A.** Its IC50 is 2810 nM.

**Q.** With `CN1CC[C@H](c2ccc(Cl)cc2)[C@@H](CCCF)C1` [Compound 80, (+)-4β-(4-Chlorophenyl)-3α-(3-fluoropropyl)-1-methylpiperidine] as the molecule, how does the IC50 (dopamine transporter [1]; DAT IC50 (nm), Table 2) read?
**A.** Its IC50 is 28 nM.
